Patent US11332438B2, “Creatine prodrugs, compositions and methods of use thereof” (Ultragenyx Pharmaceutical Inc., priority 2017, dated 2022)
“Also recorded” adds a separate entry of the source.

Key:
[1] = Chemical stability in simulated gastric fluid (SGF) without pepsin; type: physicochemical; settings: Table 2A, 50 μM prodrug
In short: (§1)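 Incubations used 50 μM compound at 37 °C in phosphate buffered saline, fasted simulated intestinal fluid without pancreatin, or fasted simulated gastric fluid without pepsin.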

[2] = Chemical stability in phosphate buffered saline (PBS); type: physicochemical; settings: Table 2A, 50 μM prodrug
In short: as §1

ARPE-19 cells = experiment: Creatine prodrug uptake and d3-creatine release in ARPE-19 cells (Table 4A); type: cell-based, human; settings: 50 μM, 6 h, cytosol fraction, corrected for total protein
Description: At the end of the incubation, supernatant will be collected from each well to assess prodrug recovery. Cells are then washed 3× with PBS. Plates, prodrugs in supernatant, prodrugs in serum-free medium are stored at −80° C. until harvest (within 5 days). On the day of extraction, 130 uL of lysis buffer (10 mM Tris pH 7.4) with EDTA-free protease inhibitors is added to each well and cells are removed using a cell scraper. Lysates are further homogenized using a handheld pestle and then centrifuged at 16,000 g, […], for 10 minutes to collect cytosol fraction. Pellets will be stored at −80° C. until further analysis. A 4× volume of stop solution (80% ACN/20% water) will be added to the cytosol fraction, supernatant and medium. Samples will be centrifuged at 15,890 g (13,000 rpm) at 4° C. for 10 mins. Supernatant will be collected and stored at −80° C. within 5 days prior to LC-MS/MS analysis. Dosing solutions for each prodrug (10 μM) will be assayed to verify concentration. Cells alone with vehicle will serve as controls to assess background signal for LC-MS/MS. Two independent runs of experiment will be conducted.
Nine fatty acid amide creatine prodrugs were tested in human ARPE-19 cells to assess prodrug uptake and d3-Cr release inside the cells. 50 μM of prodrug was incubated in culture medium with the cells and the cells were harvested at 6 h. Quantitation of prodrugs, d3-Cr (d3-creatine) and d3-Cm (d3-creatinine) in the cytosol fraction was corrected for total protein concentration.

[3] = Prodrug cleavage in human brain homogenates (HBH): d3-Cr release and d3-Crn cyclization; type: in vitro ADME; settings: for Prodrug Cleavage Human BH d3-Crn release / Prodrug Cleavage Human BH net d3-Cr release: 200 μM prodrug, 3 h, % of nominal input; for Prodrug Cleavage Human BH net d3-Cr release: negative control subtracted
Description: (§2) For assessment of the ability of prodrugs to release creatine, and to release creatine preferentially to unwanted cyclization to creatinine, d3-labeled (deuterium labeled methyl group) prodrugs are incubated with brain homogenates (e.g., mouse, human) specially prepared to preserve FAAH activity or with rFAAH for direct cleavage study. The use of d3-labelled prodrugs is essential in order to distinguish prodrug-derived creatine (d3-creatine) from high concentrations of endogenous (non-labeled) creatine. […] Prodrugs are tested at final concentrations of 20 μM and 200 μM. Approximately 3-4 mg of homogenate is used for each reaction. Co-factor (NADPH) is included at a final concentration of 1 mM. FAAH activity is confirmed by conversion of 7-amino-4-methyl Coumarin-Arachidonamide to 7-amino-4-methyl Coumarin by fluorescent assay. Negative controls include incubations without brain homogenate/rFAAH (but with NADPH) or 65° C. heat inactivated brain homogenate/rFAAH to assess non-enzymatic prodrug cleavage under the conditions of the assay and FAAH inhibitor […] at the concentration of 1 μM. Prodrug incubations are prepared by addition of 8 μL of prodrug stock solution (500 or 5000 μM in DMSO or DMSO/methanol) to assay buffered, followed by addition of brain homogenate/rFAAH. […] The samples are centrifuged at 15890×g for 10 minutes at 4° C., followed by transfer of the supernatants for storage at −20° C. pending LC-MS/MS analysis. Sample supernatants are analyzed by LC-MS/MS for determination of d3-prodrug, d3-creatine and d3-creatinine levels.
(§3) Deuterated creatine prodrugs were tested in 3 different in vitro assays to assess d3-creatine (d3-Cr) release and cyclization to form d3-creatinine (d3-Crn). These assays were 1) direct cleavage with recombinant human FAAH enzyme (rFAAH), 2) cleavage in mouse brain homogenates (MBH), and 3) human brain homogenates (HBH).
(§4) Creatine prodrug cleavage efficiency was determined by percentage of net d3-Cr release in μM (positive reaction subtracted from negative control of no brain homogenate/rFAAH or inactivated brain homogenate/rFAAH) over nominal input concentration of 200 μM prodrug at 3 h. Propensity for creatinine cyclization was determined by percentage of d3-Crn generated in μM in positive reaction over nominal input concentration of 200 μM prodrug at 3 h.

[4] = Chemical stability in simulated intestinal fluid (SIF) without pancreatin; type: physicochemical; settings: Table 2A, 50 μM prodrug
Description: Chemical stability of creatine prodrugs in phosphate buffered saline (PBS), simulated intestinal fluid (SIF) without pancreatin, simulated gastric fluid (SGF) without pepsin were determined by LC-UV, LC-CAD, LC-UV-CAD or LC-MS/MS as appropriate. Creatine prodrugs of the present disclosure (50 μM) were incubated at 37° C. according to described protocols and prodrug levels were compared between t=0, t=15, t=60, and t=120 mins by peak area ratio to determine the percentage remained at t=120 mins (2 h).
Protocol for PBS, SIF and SGF stability for screening:
Prodrugs (50 μM) were incubated in PBS, FaSSIF (Biorelevant) or FaSSGF (Biorelevant) at 37° C.

[5] = molecular target: T1, recombinant human FAAH enzyme (rFAAH) (Homo sapiens, UniProt O00519); experiment: Direct prodrug cleavage with recombinant human FAAH enzyme (rFAAH): d3-Cr release and d3-Crn cyclization; type: biochemical; settings: 200 μM prodrug, 3 h, % of nominal input; for Prodrug Cleavage rFAAH net d3-Cr release: negative control subtracted
T1 sequence (O00519 1-579): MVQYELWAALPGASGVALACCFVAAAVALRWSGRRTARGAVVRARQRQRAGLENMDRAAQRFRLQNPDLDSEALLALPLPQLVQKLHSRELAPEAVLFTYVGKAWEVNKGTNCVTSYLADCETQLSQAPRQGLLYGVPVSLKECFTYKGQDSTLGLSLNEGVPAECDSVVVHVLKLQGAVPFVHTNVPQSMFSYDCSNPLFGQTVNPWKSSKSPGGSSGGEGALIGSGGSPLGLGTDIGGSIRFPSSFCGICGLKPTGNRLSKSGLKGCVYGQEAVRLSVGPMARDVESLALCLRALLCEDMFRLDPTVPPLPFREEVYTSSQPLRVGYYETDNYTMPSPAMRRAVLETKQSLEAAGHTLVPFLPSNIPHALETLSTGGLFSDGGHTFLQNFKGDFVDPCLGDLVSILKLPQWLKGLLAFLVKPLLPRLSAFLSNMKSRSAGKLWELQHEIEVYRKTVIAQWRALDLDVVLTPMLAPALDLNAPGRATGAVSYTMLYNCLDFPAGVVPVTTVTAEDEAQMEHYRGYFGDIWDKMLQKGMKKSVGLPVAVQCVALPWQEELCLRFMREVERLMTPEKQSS
Description: as §2, §3, §4

[6] = In vivo IV dosing in CrT KO mice: prodrug, d3-Cr and d3-Crn in brain (Table 5); settings: brain, CrT KO mice
Description: A creatine prodrug is administered as an intravenous bolus injection to groups of three to six adult male CD1 mice at an appropriate creatine prodrug dose equivalent per kg body weight. Animals are conscious at the time of the experiment. Blood samples (0.3 mL) are obtained via a jugular vein cannula at intervals over 8 hours following IV dosing. Blood is processed into plasma, then the plasmais immediately frozen at −80° C. until analyzed by LC-MS/MS. Samples may also be taken form the CSF or other appropriate biological fluid. Brains were collected and flash frozen immediately in liquid nitrogen. Brains were homogenized in 100 mM KPI buffer with a cocktail of anti-proteases on the same day as the sample preparation required for LC-MS/MS analysis.
Several prodrugs with either free COOH group and ester linkage and macrocycles were selected for IV dosing in animal study to assess PK and d3-Cr release in brain in vivo. Prodrugs were IV dosed in CrT KO mice at 10, 15, or 25 mg/kg in animal studies. Mouse brain homogenates (MBH) were prepared from brains collected from mice after dosing. Levels of prodrug, d3-Cr and d3-Crn were quantified in brain and expressed in brain concentration (for macrocycle prodrugs) or AUC (for linear prodrugs) over time. Very few prodrugs were detected in MBH.

[7] = d3-Creatine and d3-creatinine concentration in CrT KO mice brain after IV bolus dose (FIGS. 3 and 4, Table 6); type: in vivo; settings: CrT KO mice brain, 8 h after IV bolus dose
Description: The brain concentrations of d3-creatine and d3-creatinine was measured in CrT KO mice following 10 mg/kg single dose IV bolus dose of compound 14 and 15 (FIGS. 3 and 4). As shown by FIG. 3, brain d3-creatine concentration was higher following administration of compound 15 compared to compound 14. […] Without bound to any theory, the macrocyclic compound 15 prodrug reduces d3-creatine cyclization to d3-creatinine when compared to linear compound 14 prodrug.
The concentration of d3-creatine in CrT KO mice brain were also measured for other compounds disclosed in the present application as shown in Table 6. The concentrations of d3-creatine, d3-creatinine and creatine prodrugs are measured by LC-MS/MS. The brain sample is homogenized with 4× (weight to volume) of KPI 100 mM buffer containing anti-proteases and anti-phosphatases (if needed). 50 μl of brain homogenate is then de-proteinized using 4× volume/volume of a solution containing 80% acetonitrile and 20% water with bucetin, d5-Cr (internal standard). The plate is then spun at 4000 rpm, 10 minutes, 4° C. and samples are transferred to a new plate for bioanalysis. Each analyte in each sample was quantitated against a curve in matching biomatrix using an authentic standard.

[8] = in vitro cleavage assays (Table 3A)

SMILES	Chemical Stability SGF, no enzyme % T0 at 2 hours at 37 °C. [1]	Chemical Stability PBS % T0 at 2 hours at 37 °C. [2]	d3-Cr, Cellular Uptake (ARPE-19 cells)	d3-Crn, Cellular Uptake (ARPE-19 cells)	prodrug, Cellular Uptake (ARPE-19 cells)	Prodrug Cleavage Human BH d3-Crn release [3]	Prodrug Cleavage Human BH net d3-Cr release [3]	Chemical Stability SIF, no enzyme % T0 at 2 hours at 37 °C. [4]	Prodrug Cleavage rFAAH d3-Crn release [5]	Prodrug Cleavage rFAAH net d3-Cr release [5]	d3-Cr/d3-Crn release ratio in vivo (in words) [6]	d3-Cr release in vitro (in words) [3, 8]	d3-Crn (creatinine) cyclization in vitro (in words) [3, 8]	Concentration of d3-Cr in CrT KO mice brain [7]
[2H]C([2H])([2H])N(CC(=O)[O-])C(=N)NC(=O)CCCCCCCCCCCCC.[Li+] [Compound 7, Lithium 2-(1-trideuteriomethyl-3-tetradecanoylguanidino) Acetate]	63%	90%	18.6 nmol/mg protien	<0.2 nmol/mg protien	13.1 nmol/mg protien	0.8%	50.8%	77%	1.7%	146.0%	–	–	–	–
Cl.[2H]C([2H])([2H])N(CC(=O)OC(C)C)C(=N)NC(=O)CCCCCCCCCCCC [Compound 10-HCl]	83%	11%	–	–	–	251.5%	4.3%	46%	217.0%	1.2%	favorable d3-Cr/d3-Crn ratio	small amount of d3-Cr	predominantly cyclized into creatinine; also recorded: predominantly creatinine cyclization	–
[2H]C([2H])([2H])N1CC(=O)OC(CCCCC)CCCCCC(=O)NC1=N (stereo not drawn) [Compound FF, 5-Imino-4-trideuteriomethyl-13-pentyl-1-oxa-4,6-diazacyclotridecane-2,7-dione]	–	–	–	–	–	–	–	–	–	–	–	–	–	BLOQ
